According to patent US11034661B2, “Substituted N′-hydroxycarbamimidoyl-1,2,5-oxadiazole compounds as indoleamine 2,3-dioxygenase IDO inhibitors” (Merck Sharp & Dohme Corp., priority 2017, dated 2021):
pIC50: −log10 of the molar value.

Tests used:
[1] = target: HIS-tagged IDO1 protein (Homo sapiens (Human), UniProt P14902); assay: IDO1 Enzyme Assay; assay type: biochemical; conditions: recombinant IDO1 40 nM, tryptophan substrate, fluorescence readout
Summary of the method: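 Recombinant E. coli-expressed HIS-IDO1 (40 nM final) in 50 mM Tris pH 7.0 with methylene blue, ascorbate and catalase, preincubated with compound 30 min at RT, then tryptophan added and reacted 60 min at RT. Quenched with methyl isonipecotate, heated, fluorescence read (ex 400/em 510 nm); IC50 from four-parameter logistic fit.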

[2] = target: IDO1 in Hela cells stimulated with IFNγ (Homo sapiens (Human), UniProt P14902); assay: IDO1 Cellular Assay in Hela Cells Stimulated with IFNγ; assay type: cell-based; conditions: IFNγ 100 ng/mL, about 48 hours, fluorescence readout, read-out: IDO1 HELA Cell Assay, IC50
Summary of the method: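 IFNγ-stimulated (100 ng/mL) HeLa cells with 300 uM L-tryptophan were incubated with 10-point 3-fold compound dilutions for about 48 h at 37 °C. Kynurenine product was derivatized with methyl isonipecotate overnight and read by fluorescence (ex 400/em 510 nm). Signal was background-corrected using non-IFNγ cells and normalized to DMSO, and IC50 came from a four-parameter logistic fit.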

[3] = target: IDO1 in human whole blood stimulated with LPS and IFNγ (Homo sapiens (Human), UniProt P14902); assay: IDO1 Human Whole Blood Assay; assay type: cell-based; conditions: LPS and IFNγ 100 ng/mL, 18 h, kynurenine by LC/MS/MS
Protocol: IDO1 Human Whole Blood Assay
Compounds to be tested were serially diluted in ten 3-fold steps in DMSO starting from 10 mM. 3 μL of compound dilutions or DMSO alone were then dispensed from the dilution plate into a polypropylene 96-well assay plate containing 97 μL of RPMI using an Echo 555 acoustic liquid handler (Labcyte). LPS and IFNγ was prepared in RPMI to a 10× of final conc. (1000 ng/mL), final concentration is 100 ng/mL.
Human whole blood was drawn in sodium heparin coated tubes from healthy internal donors. Two hundred forty μL of blood was transferred to each of the wells of a v-bottom 96 well plate. Thirty μL of compound was transferred from intermediate dilution plate, and incubated for 15 min. Thirty μL from stimulants was then transferred to blood and mixed thoroughly. Plate was covered with breathable membrane and incubated at 37° C. for overnight (18 h).
On day 2 isotope labeled standard of kynurenine and tryptophan was made in water at 10× concentration and 30 μL was added to the blood at 3 μM final concentration. The assay plates were centrifuged at 300×G for 10 min with no brake to separate plasma from red blood cells. Sixty μL of plasma samples was removed without disturbing red blood cells. Plasma was diluted with RPMI in 1:1 ratio and proteins were precipitated out with two volume of Acetonitrile. The plates was centrifuged at 4000×G for 60 min. Twenty μL of supernatant was carefully transferred to a 384 well plate contain 40 μL of 0.1% formic acid in water and analyzed by LC/MS/MS.
LC/MS/MS analyses were performed using Thermo Fisher's LX4-TSQ Quantum Ultra system. This system consists of four Agilent binary high-performance liquid chromatography (HPLC) pumps and a TSQ Quantum Ultra triple quadruple MS/MS instrument. For each sample, 5 μL were injected onto an Atlantis T3 column (2.1 mm×150 mm, 3 μm particle size) from Waters. The mobile phase gradient pumped at 0.8 mL/min was used to elute the analytes from the column at 25° C. The elution started at 0% B increasing linearly to 25% B at 6.5 min, holding at 25% for 1 min, re-equilibrating to 10 min. Mobile phase A consisted of 0.1% formic acid in water. Mobile phase B consisted of 0.1% of formic acid in acetonitrile. Data was acquired in positive mode using a HESI interface. The operational parameters for the TSQ Quantum Ultra instrument were a spray voltage of 4000 V, capillary temperature of 380° C., vaporizer temperature 400° C., shealth gas 60 arbitrary units, Aux gas 20 arbitrary units, tube lens 85 and collision gas 1.2 mTorr. SRM chromatograms of kynurenine (Q 1: 209.2>Q3:94.0) and internal standard (Q1: 215.3>Q3:98.2) were collected for 90 sec. The peak area was integrated by Xcalibur Quan software. The ratios between the kynurenine generated in the reaction and 2D6-Kynurenine spiked-in internal standard were used to generate percentage inhibition and IC50 values. Compounds were titrated and IC50's were calculated by 4 parameter sigmoidal curve fitting formula.

HIS-tagged IDO1 protein, sequence (P14902 whole entry): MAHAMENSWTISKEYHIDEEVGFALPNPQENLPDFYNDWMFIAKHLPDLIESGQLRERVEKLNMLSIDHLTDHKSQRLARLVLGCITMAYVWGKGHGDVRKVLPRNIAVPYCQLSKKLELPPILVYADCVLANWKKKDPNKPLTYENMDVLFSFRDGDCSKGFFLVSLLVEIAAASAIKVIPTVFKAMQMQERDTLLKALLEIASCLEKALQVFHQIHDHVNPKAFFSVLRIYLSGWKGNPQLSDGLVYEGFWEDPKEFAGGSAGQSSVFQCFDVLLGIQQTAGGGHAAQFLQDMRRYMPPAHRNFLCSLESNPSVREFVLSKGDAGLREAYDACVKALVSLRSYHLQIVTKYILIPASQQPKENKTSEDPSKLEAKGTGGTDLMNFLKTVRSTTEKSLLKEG
IDO1 in human whole blood stimulated with LPS and IFNγ, sequence (P14902 whole entry): as above
IDO1 in Hela cells stimulated with IFNγ, sequence (P14902 whole entry): as above

pIC50 [1] | pIC50 [2] | IDO1 human whole blood assay, IC50 [3] [nM] | Compound
7.31 | 6.97 | 666.4 | NS(=O)(=O)NCCOc1nonc1/C(=N/O)N[C@H]1Cc2ccc(F)cc21 [Example 1, (S)—N-(4-fluorobicyclo[4.2.0]octa-1(6),2,4-trien-7-yl)-N′-hydroxy-4-(2-(sulfamoylamino)ethoxy)-1,2,5-oxadiazole-3-carboximidamide]
7.44 | 7.34 | 1440 | NS(=O)(=O)N[C@H]1C[C@@H](Oc2nonc2/C(=N/O)N[C@H]2Cc3ccc(F)cc32)C1 [Example 43, N-[(7S)-4-fluorobicyclo[4.2.0]octa-1,3,5-trien-7-yl]-N′-hydroxy-4-{[cis-3-(sulfamoylamino)cyclobutyl]oxy}-1,2,5-oxadiazole-3-carboximidamide]
7.23 | 7.29 | 185.4 | CC(=O)NCCOc1nonc1/C(=N/O)N[C@H]1Cc2ccc(F)cc21 [Example 3, (S)—N-(2-((4-(N-(4-fluorobicyclo[4.2.0]octa-1(6),2,4-trien-7-yl)-N′-hydroxycarbamimidoyl)-1,2,5-oxadiazol-3-yl)oxy)ethyl)acetamide]
7.29 | 7.38 | 314.2 | CC(=O)N[C@H]1C[C@@H](Oc2nonc2/C(=N/O)N[C@H]2Cc3ccc(F)cc32)C1 [Example 36, N-{cis-3-[(4-{N-[(7S)-4-fluorobicyclo[4.2.0]octa-1,3,5-trien-7-yl]-N′-hydroxycarbamimidoyl}-1,2,5-oxadiazol-3-yl)oxy]cyclobutyl}acetamide]
7.13 | 6.71 | 262.4 | NC(=O)NCCOc1nonc1/C(=N/O)NC1Cc2ccc(F)cc21 (stereo not drawn) [Example 11, 4-[2-(carbamoylamino)ethoxy]-N-(4-fluorobicyclo[4.2.0]octa-1,3,5-trien-7-yl)-N′-hydroxy-1,2,5-oxadiazole-3-carboximidamide]
7.25 | 7.18 | 665.5 | O=C(c1nc[nH]n1)N1CC(Oc2nonc2/C(=N/O)N[C@H]2Cc3ccc(F)cc32)C1 [Example 30, N-[(7S)-4-fluorobicyclo[4.2.0]octa-1,3,5-trien-7-yl]-N′-hydroxy-4-{[1-(1H-1,2,4-triazole-3-carbonyl)azetidin-3-yl]oxy}-1,2,5-oxadiazole-3-carboximidamide]
6.99 | 7.05 | 400.3 | C[C@H](O)C(=O)N1CC(Oc2nonc2/C(=N/O)N[C@H]2Cc3ccc(F)cc32)C1 [Example 48, N-[(7S)-4-fluorobicyclo[4.2.0]octa-1,3,5-trien-7-yl]-N′-hydroxy-4-({1-[(2S)-2-hydroxypropanoyl]azetidin-3-yl}oxy)-1,2,5-oxadiazole-3-carboximidamide]
7.14 | 7.05 | 1176 | C[C@@H](CO)NC(=O)COc1nonc1/C(=N/O)N[C@H]1Cc2ccc(F)cc21 [Example 7, 2-[(4-{N-[(7S)-4-fluorobicyclo[4.2.0]octa-1,3,5-trien-7-yl]-N′-hydroxycarbamimidoyl}-1,2,5-oxadiazol-3-yl)oxy]-N-[(2S)-1-hydroxypropan-2-yl]acetamide]
7.12 | 7.03 | 232.5 | O=C(CO)N1CC(Oc2nonc2/C(=N/O)N[C@H]2Cc3ccc(F)cc32)C1 [Example 2, (S)—N-(4-fluorobicyclo[4.2.0]octa-1(6),2,4-trien-7-yl)-N′-hydroxy-4-((1-(2-hydroxyacetyl)azetidin-3-yl)oxy)-1,2,5-oxadiazole-3-carboximidamide]
6.94 | 6.49 | 714.9 | O=C(CO)NCCOc1nonc1/C(=N/O)N[C@H]1Cc2ccc(F)cc21 [Example 5, N-{2-[(4-{N-[(7S)-4-fluorobicyclo[4.2.0]octa-1,3,5-trien-7-yl]-N′-hydroxycarbamimidoyl}-1,2,5-oxadiazol-3-yl)oxy]ethyl}-2-hydroxyacetamide]
7.25 | 7.30 | 500.6 | O=C(N1CC(Oc2nonc2/C(=N/O)N[C@H]2Cc3ccc(F)cc32)C1)C1(O)CC1 [Example 47, N-[(7S)-4-fluorobicyclo[4.2.0]octa-1,3,5-trien-7-yl]-N′-hydroxy-4-{[1-(1-hydroxycyclopropane-1-carbonyl)azetidin-3-yl]oxy}-1,2,5-oxadiazole-3-carboximidamide]
6.67 | 6.48 | 954.9 | NC(=O)N[C@H]1C[C@H](Oc2nonc2/C(=N/O)N[C@H]2Cc3ccc(F)cc32)C1 [Example 57, 4-{[trans-3-(carbamoylamino)cyclobutyl]oxy}-N-[(7S)-4-fluorobicyclo[4.2.0]octa-1,3,5-trien-7-yl]-N′-hydroxy-1,2,5-oxadiazole-3-carboximidamide]
7.17 | 7.13 | 518.6 | O=C(CO)N[C@H]1C[C@@H](Oc2nonc2/C(=N/O)N[C@H]2Cc3ccc(F)cc32)C1 [Example 38, N-{cis-3-[(4-{N-[(7S)-4-fluorobicyclo[4.2.0]octa-1,3,5-trien-7-yl]-N′-hydroxycarbamimidoyl}-1,2,5-oxadiazol-3-yl)oxy]cyclobutyl}-2-hydroxyacetamide]
